# According to a melting point compilation (Tetko et al.; mined from patent text by program, amines drawn as free bases though some values may be those of a salt):
row,Compound,melting point
1,COc1ccccc1NC(=O)Nc1nc(Oc2ccc3ccccc3c2)nc(N(CCC(=O)O)Cc2cccc3ccccc23)n1,230 to 233 °C
2,COc1ccc(Cc2cc(O)ccc2OC)nc1,115 to 122 °C
3,COc1cccc([Si](C)(C)COc2cc(C(C)(C)C)c(O)c(C(C)(C)C)c2)c1OC,94.5 to 96 °C
4,COC1CC2(C)C(CCC3C4CC=C(C(C)=O)C4(C)CC(=O)C32)CC1O (stereo not drawn),159 to 163 °C
5,CCOC(=O)C(Cc1ccc2ccccc2n1)(OC1CCCCO1)C(=O)OCC (stereo not drawn),75 to 78 °C
6,O=C(NCCNCC(O)COc1ccccc1)c1cc(O)ccc1O (stereo not drawn),178 to 180 °C
7,Cc1ccc2cccc(OCc3c(Cl)ccc(S(=O)(=O)N4CCCC4C(=O)NCCCN)c3Cl)c2n1 (stereo not drawn),130 to 132 °C
8,COc1ccc(CC(=O)O)cc1C(C)C,94 to 96 °C
9,CCC1=NN(CCO[Si](C)(C)C(C)(C)C)C(=O)C1Oc1cc(C#N)cc(C#N)c1 (stereo not drawn),204 °C
10,CCOC(=O)c1cc2nc(C)n(Cc3ccccc3)c2[nH]1,193 °C
11,COc1c(C)cccc1Oc1ccccc1,52 to 53 °C
12,Cc1nc2c(N)cccn2c1C,148 to 150 °C
13,OCCCc1oc(-n2cccn2)nc1-c1ccc(Cl)cc1,75 to 76 °C
14,CN(C)C=C1C(=O)CCc2c1cnn2C,94 to 100 °C
15,Clc1ccccc1Cc1cccc2[nH]ccc12,76 to 77 °C
16,NC(=O)NCc1ccc(-c2ccc3oc([N+](=O)[O-])c(-c4ccccc4)c3c2)cc1,215 to 216 °C
17,COc1cc(CO)ccc1OCc1coc(-c2ccco2)n1,117 to 118 °C
18,Cc1c(NC(=O)CC(C)(C)C)c(C)c2c(c1-c1ccc(N(C)C)cc1)OCC2c1ccc(C(C)C)cc1 (stereo not drawn),180 to 181 °C
19,CCCCCCCCCCCCCCN(C)c1ccc(N)cc1C(=O)O,79 °C
20,CN(CCOc1ccc(NC(=O)c2cccc3c(=O)c4ccccc4[nH]c23)cc1)Cc1ccccc1,173 °C
21,COCCOc1ccc(CCCN2C(=O)c3ccccc3C2=O)c(Oc2ncc(C(F)(F)F)cc2Cl)c1,101 to 103 °C
22,COc1ccc(N2CCN(c3ccc(NC(=O)NCC(OC)OC)cc3)CC2)cc1,225 °C
23,CN(C)CC=NC(=O)c1cnn2c(-c3cccnc3)ccnc12,124 to 127 °C
24,CCOC(=O)C1(S(=O)(=O)c2ccc(OC)cc2)CCN(Cc2ccc(-c3ccccc3)cc2)CC1,176 to 178 °C

row,Compound,melting point
1,CCC(=O)N(CC)c1cccc(C(=O)C=CN(C)C)c1,105 to 107 °C
2,CCOC(=O)C1NC(C(=O)O)c2[nH]c3cccc(OCc4cccc(Cl)c4)c3c2C1COC (stereo not drawn),178 to 179 °C
3,Cc1c(CC(=O)O)c2cc(O)ccc2n1C(=O)c1ccc(F)cc1,180 to 182 °C
4,COc1ccc(C(=O)c2c(N(C)C)sc3cc(OCc4ccccc4)ccc23)cc1OC,69 to 72 °C
5,COc1cc2ncnc(N3CCN(C(=S)NCc4ccc(OC(F)(F)F)cc4)CC3)c2cc1OC,131 to 132 °C
6,Cc1cc(OC(F)F)nc(NC(=O)NS(=O)(=O)c2cccnc2Cl)n1,161 to 162 °C
7,O=C(NCCc1cccc2ccc(OC3CCCCC3)cc12)C1CCC1,116 to 118 °C
8,O=C1Nc2ccccc2Sc2cscc21,215 to 216 °C
9,O=P1(c2ccc(Cl)cc2)c2ccccc2CN1c1ccccc1 (stereo not drawn),180 to 182 °C
10,Cn1c(C=O)cc2ccccc21,83 °C
11,CN1CCC(Oc2cccc(C(=O)Nc3cc(NC(=O)c4ccc(C#N)cc4)ccc3Cl)c2)CC1,177 to 179 °C
12,CCc1nc(C(=O)c2cc(F)c(Cl)cc2Cl)c(C=O)n1C(CC)CC,70 to 71 °C
13,COC(=O)CCNc1c(C#N)cnn1-c1c(Cl)cc(C(F)(F)F)cc1Cl,171 to 173 °C
14,C=CC(C)c1cc(C)c2c(c1O)C(N(C)C(=O)c1cccnc1)C1CCCCC21 (stereo not drawn),183 to 184 °C
15,O=[N+]([O-])c1ccc(NN=C2c3ncc(Cl)cc3C=CC2Cl)c([N+](=O)[O-])c1 (stereo not drawn),> 280 °C
16,NS(=O)(=O)c1ccc(-c2nc(-c3cnn4c(C(F)(F)F)cc(-c5ccc(C(F)(F)F)cc5)nc34)no2)cc1,292 °C
17,COc1cccc(Nc2cnc3c(NCc4ccccc4)nc(NCCO)nc3c2)c1,110 to 111 °C
18,Cn1c(SC(Cl)=C(Cl)C#N)nnc1C(F)(F)F,90 to 94 °C
19,O=C(Nc1ccccc1)Nc1ccnc(Br)c1,188 to 189 °C
20,COC(=O)CCCc1cc2nc(Cl)ccc2n1S(=O)(=O)c1c(F)cccc1F,107 to 109 °C
21,Cc1c(C=CCN2CC=C(c3ccccc3)CC2)cnn1-c1ncccn1,112 to 114 °C
22,CNC(=O)c1cccc2cccc(C(=O)Nc3ccc(F)cc3C)c12,249 °C
23,COc1cc(OCc2oc(=O)oc2C)c(C(=O)CCc2ccc3occc3c2)cc1C1OC(CO)C(O)C(O)C1O (stereo not drawn),128 °C
24,COc1cc(C(=O)Nc2c(Cl)cc3cn[nH]c3c2C(=O)NC2(C)CSC2)n(-c2ncccc2Cl)n1,162 to 165 °C
